Assays:
[1] = oral, cited from earlier work
[2] = Clinic based application of topical Ivermectin for the treatment of inflammatory blepharitis; type: in vivo
Method: In another embodiment, the pharmaceutical composition is administered periodically. In an embodiment, the pharmaceutical composition is applied daily for 3 days and the treatment is repeated for 3 days again after 2 weeks. In most cases this is sufficient for a significant therapeutic effect. The treatment using this frequency can be repeated again if the condition recurs but this is necessary only in a relatively small number of cases. The intermittent dosage of the Ivermectin provides the benefit of a lower amount of Ivermectin use and thereby lowers the possibility of adverse effects.
In another embodiment, a subject with anterior and posterior blepharitis is identified and the existing symptoms and signs noted. The pharmaceutical composition is applied by the practitioner using for example, slit lamp magnification to accurately identify the areas on the eyelid margin where the pharmaceutical composition is to be applied. A topical anaesthetic drop is applied in the lower conjunctival sac of the eye 5 to 10 minutes prior. Temporary anaesthetization will attenuate the lacrimal reflex thereby minimizing the production of tear fluid during the application process.
The pharmaceutical composition is applied as a film precisely along the length of the lid margin with the applicator just covering the openings of the Meibomian glands but taking care as to not further extend the composition into the mucosal surface. The pharmaceutical composition is extended proximally to cover the lash roots and the skin area in between. The lid is held reflected away from the eyeball until the pharmaceutical composition sets and dries in place. The pharmaceutical composition takes the form of an adhesive film or coating on the lid margin. This procedure is repeated for all the 4 eyelid margins. The administration of the pharmaceutical composition results in enhanced meibum production.
A clinic based application of topical Ivermectin for the treatment of inflammatory blepharitis has been successful; both for cases where Demodex species were not isolated which constituted the majority of cases of Blepharitis treated, and the smaller number of cases where Demodex species were isolated. Most of these were cases with longstanding disease which had been unresponsive to a wide range of currently accepted treatment modalities. More than 95% had full relief of symptoms and a remarkable reduction in signs of inflammation of the lid margins. 87% of the cases required only 1 treatment cycle for marked improvement or complete remission of symptoms.

Q: Which “adverse effect at high doses” value ([1]; high doses) does the source give for “mixture containing 5-O-demethyl-22,23-dihydroavermectin A1a and 5-O-demethyl-25-de(1-methylpropyl)-25-(1-methylethyl)-22,23 dihydroavermectin A1a [Ivermectin]” here?
A: paralysis

Q: And the safety profile [1]?
A: good safety profile

Q: And the “cases that required only 1 treatment cycle for marked improvement or complete remission of symptoms” value ([2]; topical application to lid margins)?
A: 87%

Q: And the “cases with full relief of symptoms and a remarkable reduction in signs of inflammation of the lid margins” value ([2]; topical application to lid margins, cases with and without Demodex isolated, mostly longstanding disease unresponsive to accepted treatments)?
A: More than 95%

Q: And the “Meibomian gland orifices and secretions after treatment” value ([2]; topical application, a significant number of cases)?
A: re-opening of previously closed Meibomian gland orifices

Q: What about the “overall outcome of treatment of inflammatory blepharitis” value ([2]; topical application, cases with and without Demodex species isolated) of the same substance?
A: successful

Q: And the “dry eye symptoms after treatment” value ([2]; topical application, majority of the cases where dry eye symptoms were present)?
A: remarkable improvement
